Source: paper PMC9785144, “Metal Coordination and Biological Screening of a Schiff Base Derived from 8-Hydroxyquinoline and Benzothiazole” (Pharmaceutics, 2022)

Key:
CT-26 colon cancer cells = assay: MTT antiproliferative assay, CT-26; type: cell-based, murine; conditions: Mus musculus, CT26; CT-26, MTT, 48 h incubation
Protocol: (§1) Murine colon cancer CT-26 (ATCC® CRL-263™) cells were cultured in RPMI-1640, supplemented with 10% foetal bovine serum (FBS) and 100 IU/mL of penicillin and 100 μg/mL streptomycin (Gibco, Thermo Fisher Scientific, Waltham, MA, USA), hereafter designated as complete culture medium. Human colon cancer HCT-116 (ATCC® CCL-247™), human melanoma A375 (ATCC® CCL-1619™), murine melanoma B16F10 (ATCC® CCL-6475™) cells and human epidermal keratinocytes (HaCaT) were maintained in Dulbecco’s modified Eagle’s medium (DMEM) with high-glucose (4500 mg/L) (Sigma-Aldrich, St. Louis, MO, USA), supplemented with 10% FBS and 100 IU/mL of penicillin and 100 μg/mL streptomycin (Gibco, Thermo Fisher Scientific, Waltham, MA, USA), also designated as complete culture medium. The cell lines were maintained at 37 °C in a 5% CO2 environment and cells were trypsinised every 2–3 days when 80% confluence was reached.
(§2) Negative controls were cells maintained in complete culture medium.

[1] = test system: HCT-116 colon cancer cells; assay: MTT antiproliferative assay, HCT-116; type: cell-based, human; conditions: Homo sapiens; HCT-116, MTT, 48 h incubation
Protocol: as §1, §2

HCT-116 cells [2] = assay: Wound-healing migration assay, HCT-116; type: cell-based, human; conditions: HCT-116, 40 μM, at 22 h (control 50%)
Protocol: To assess cellular migration in the presence or absence of tested compounds, HCT-116 and CT-26 cells were plated at 1.5 × 10^5 and 3 × 10^5 cells/mL in a 12-well plate (1 mL/well) and were allowed to adhere and grow until reaching around 80–90% confluence. A sterile 10 μL pipette tip was used to wound the cell monolayer, followed by a washing step with PBS to remove debris. Then, cells were incubated with the tested compounds suspended in RPMI-1640 (CT-26) or DMEM media (HCT-116) supplemented with 2% FBS and 100 IU/mL of penicillin and 100 μg/mL streptomycin (Gibco, Thermo Fisher Scientific, Waltham, MA, USA), and hereafter designated as RPMI 2% and DMEM 2%, respectively. Under the above mentioned culture conditions, CT-26 cells were incubated with [Ni(HL)(acetate)] or [Ru(HL)Cl(DMSO)] at concentrations of 10 and 15 μM, respectively. […] The positive control, 5-FU, was tested at 1.5 and 40 μM for CT-26 and HCT-116, respectively. Negative control group was constituted by cells maintained in RPMI 2% (CT-26) and DMEM 2% (HCT-116). Images of the wound closure were taken beneath the stage of a Zeiss Axiovert 200 inverted microscope, using a 10× objective and a digital camera (CoolSNAP EZ, Photometrics, Huntington Beach, CA, USA) and recorded by the Metafluor Software at 0, 2, 4, 8, 18, 20 and 22 h following cell monolayer scratching (Molecular Devices, Sunnyvale, CA, USA). […]

CT-26 cells = assay: Guava ViaCount cell viability assay; type: cell-based, murine; conditions: CT-26, 48 h incubation
Protocol: CT-26 cells were incubated with [Ni(HL)(acetate)] or [Ru(HL)Cl(DMSO)] at concentrations of 5 and 10 μM or 10 and 20 μM, respectively. For the HCT-116 cell line, the tested concentrations were 5 and 7.5 μM, and 7.5 and 12.5 μM, respectively. The positive control group, 5-FU, was tested at 0.5 and 2 μM, and at 20 and 40 μM for CT-26 and HCT-116, respectively. Negative control group was constituted by cells in the presence of complete culture medium. After a 48 h incubation period, cell culture supernatants were collected, and adherent cells were detached using TrypLE™ Express (Invitrogen). Detached cells were then added to supernatants and the wells were washed using PBS with 2% FBS to recover any remaining cells. The recovered suspension was added to the previously collected cells and supernatants and centrifuged for 5 min at 650× g. The supernatants were discarded, and cells were suspended in PBS with 2% FBS. Then, on a 96-well plate, 20 μL of cell suspension was incubated with 180 μL of Guava ViaCount® reagent (Merck Millipore, Darmstadt, Germany) for 5 min at r. t. Using a Guava EasyCyte 5HT Flow cytometer (Guava Technologies, Inc., Hayward, CA, USA), data were collected and analysed with the ViaCount software module with the acquisition of 10,000 events per sample. GraphPad Prism®8 was used to analyse cell proliferation (GraphPad Software, San Diego, CA, USA). […]

HCT-116 cells [3] = test system: HCT-116 cells; design: method as in PMID 34389368, PMID 34562873; conditions: HCT-116, concentrations around 20 μM; cited from earlier work
cancer cells = conditions: in vitro; cited from earlier work
HCT-116 cell line = test system: HCT-116 cell line; design: method as in PMID 26961176; conditions: cited from earlier work
[4] = Stability in PBS pH 7.4 without and with BSA (UV-vis); type: physicochemical; conditions: PBS pH 7.4, 25 °C, <1% DMSO, without BSA
Protocol: The complexes were monitored for their stability in PBS, pH 7.4 at 25 °C in the absence and presence of equimolar amounts of bovine serum albumin (BSA). Stock solutions of each complex were prepared in DMSO and then diluted in PBS in order to obtain final concentrations of 20 to 30 µM and ensuring that the organic solvent was less than 1% (v/v). For the assays with BSA, stock solutions of the protein were prepared in PBS using 20 mg of lyophilised powder in 5 mL solvent, which were allowed to hydrate for 24 h in the refrigerator. Samples were monitored by UV-vis absorption spectroscopy for 6 h and a final measurement was also taken after 24 h.

[5] = biological target: bovine serum albumin (BSA) (Bos taurus, UniProt P02769); assay: Albumin binding by fluorescence quenching and circular dichroism; conditions: BSA ca. 20–25 μM, bands centred at ca. 360 nm, compound 5 to 70 μM
bovine serum albumin (BSA), sequence (P02769 25-607): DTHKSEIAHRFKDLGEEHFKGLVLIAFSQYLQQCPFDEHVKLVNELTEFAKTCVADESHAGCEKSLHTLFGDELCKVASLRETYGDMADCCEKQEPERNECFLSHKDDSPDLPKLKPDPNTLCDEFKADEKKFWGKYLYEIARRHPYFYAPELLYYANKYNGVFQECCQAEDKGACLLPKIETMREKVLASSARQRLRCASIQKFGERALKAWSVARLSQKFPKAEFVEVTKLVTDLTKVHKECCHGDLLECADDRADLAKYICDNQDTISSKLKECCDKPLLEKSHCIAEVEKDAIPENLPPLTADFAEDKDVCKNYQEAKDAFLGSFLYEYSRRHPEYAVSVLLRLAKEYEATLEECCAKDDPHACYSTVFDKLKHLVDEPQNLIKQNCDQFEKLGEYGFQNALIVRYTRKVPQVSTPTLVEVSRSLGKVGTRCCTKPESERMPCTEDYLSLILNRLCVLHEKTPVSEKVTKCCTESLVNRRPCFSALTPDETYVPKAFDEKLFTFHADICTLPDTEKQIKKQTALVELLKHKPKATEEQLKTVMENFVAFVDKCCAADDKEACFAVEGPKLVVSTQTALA
Protocol: The concentration of BSA in the experiments was ca. 1.5 μM (in aqueous PBS). The fluorescence emission spectra were recorded between 310 and 575 nm, with λex = 295 nm. Successive additions of the complexes were done directly to the cuvette (optical path 1 cm) and the fluorescence emission spectra were recorded for each one under the same conditions. Blank assays for each sample, consisting in solutions with the same concentration of complex and no BSA, were recorded and subtracted to the corresponding emission spectra containing the fluorophore. The UV-vis spectra of the sample solutions were used to correct the emission spectra, minimizing inner filter and reabsorption phenomena interference.
The concentration of BSA in the experiments was ca. 20–25 μM (in aqueous PBS). The circular dichroism (CD) spectra are an average of three scan accumulations, recorded between 300 and 500 nm, with bandwidth of 1 nm and response of 2 s, using a scanning speed of 100 nm/min. Successive additions of the complexes stock solutions in DMSO were done directly to the cuvette (1 cm) and the CD spectra were recorded under the same conditions after 10 min equilibration. Induced CD spectra were obtained as the CD spectrum of compound-BSA mixture minus the CD spectrum of BSA alone and are expressed as ellipticity in millidegrees.

O=c1[nH]cc(F)c(=O)[nH]1 [5-FU, 5-fluorouracil, reference compound]
IC50 (CT-26 colon cancer cells): 2.7 ± 1.9 µM | IC50 [1]: 43.8 ± 2.3 µM | maximum wound closure (HCT-116 cells [2]): 39% | cell viability by Guava ViaCount (CT-26 cells): higher percentage of dead and apoptotic cells | cell cycle arrest (HCT-116 cells [3]): arrested cell cycle at S phase

CS(C)=O.[Cl-].[Cl-].[Cl-].[Cl-].[Ru+3].c1c[nH+]c[nH]1.c1c[nH]cn1 [NAMI-A]
cytotoxicity against cancer cells (cancer cells): minimal cytotoxicity | fold lower activity than cisplatin (cancer cells): 1000 fold | effect on cell adhesion and migration (HCT-116 cell line): inhibitory effect in reducing cell adhesion and migration

[O]=[V]([O]c1cccc2ccc(/C=N/Nc3nc4ccccc4s3)nc12)[O]c1cccc2ccc(/C=N/Nc3nc4ccccc4s3)nc12 [[VO(HL)2]]
solubility and stability in PBS buffered solutions [4]: oxidation of the metal centre likely takes place | induced CD bands with BSA [5]: high intensity induced CD bands
